Source: patent US20110245164A1 (INDIANA UNIVERSITY RESEARCH AND TECHNOLOGY, published 2011)
Non-standard residues stand in square brackets, D forms with d. Residues, ends and D or L forms follow the SMILES beside them. Groups on a side chain read outwards from the residue. No end group written: not given here. Phe(4-NH2) = Nc1ccc(C[C@H](N)C(=O)O)cc1; Aze = O=C(O)[C@@H]1CCN1; Nleu = CC(C)CNCC(=O)O; Aib = CC(C)(N)C(=O)O

Key:
[1] = Rate of model dipeptide cleavage from model hexapeptide in PBS (HPLC); conditions: buffer
Protocol: (§1) The solution was incubated at 37° C. […] The dipeptide cleavage was quenched by lowering the pH with an equal volume of 0.1% TFA. The rate of cleavage was qualitatively monitored by LC-MS and quantitatively studied by HPLC. The retention time and relative peak area for the prodrug and the parent model peptide were quantified using Peak Simple Chromatography software.
(§2) The flow rate was 1 ml/min. Solvent A contained 0.1% TFA in distilled water, and solvent B contained 0.1% TFA in 90% CH3CN. A linear gradient was employed (0% to 30% B in 10 minutes). The data were collected and analyzed using Peak Simple Chromatography software.
(§3) The rate of cleavage was determined for the respective propeptides. The concentrations of the propeptides and the model parent peptide were determined by their respective peak areas. The first order dissociation rate constants of the prodrugs were determined by plotting the logarithm of the concentration of the prodrug at various time intervals. The slope of this plot provides the rate constant ‘k’.

Insulin Receptor [2] = biological target: T1, Insulin Receptor (Homo sapiens, UniProt P06213); assay: Insulin receptor phosphorylation assay (receptor transfected HEK293 cells); assay type: cell-based; set-up: expressed in transfected cells; host or cells: HEK293; conditions: Table 10; IGF-1 receptor EC50 versus insulin receptor EC50
Insulin Receptor [3] = biological target: T1, Insulin Receptor; assay: Insulin receptor binding assay (competition, scintillation proximity)
[4] = Dipeptide half life on IGF1 dipeptide extended (p-NH2-F)A19 amide derivatives in PBS (HPLC); assay type: physicochemical; conditions: buffer, pH 7.4
Protocol: IGF-1 peptides was measured to determine the impact of the peptide sequence or heteroduplex on the dipeptide cleavage.
Accordingly, the IGF1A chain alone was determined to be a good model for the study of pro-drug half life on IGF1 B:A (Y^B16L^B17) derivative peptides. […] For simplicity, prodrug half lives were determined using only the IGF1 A chain in the absence of the B chain. The half lives of each propeptide was determined as described in Example 5.
The IGF^B16B17 derivative peptide prodrugs were incubated in PBS, pH 7.4 at 37° C. and at predetermined time intervals an aliquot was taken and further degradation was quenched with 0.1% TFA and the aliquot was subjected to analytical HPLC analysis. Peaks a and b, representing the prodrug and active forms of the IGF^B16B17 derivative peptide were identified with LC-MS and quantified by integration of peak area an HPLC. FIGS. 9A-9C show the output of an HPLC analysis of the degradation of the IGF^B16B17 derivativepeptide prodrug: IGF1A(Ala)^6,7,11,20(Aib-Pro-pNH-F)^19. Aliquots were taken at 20 minutes (FIG. 9A), 81 minutes (FIG. 9B) and 120 minutes (FIG. 9C) after beginning the incubation of the prodrug in PBS.

in vitro = in vitro ADME; conditions: plasma
physchem = conditions: buffer
Protocol: as §1, §2, §3

human IGF-1 receptor = human IGF-1 receptor (human, UniProt P08069 31-1367); assay: cell-based or functional assay

T1 sequence (P06213 28-758 limits assumed): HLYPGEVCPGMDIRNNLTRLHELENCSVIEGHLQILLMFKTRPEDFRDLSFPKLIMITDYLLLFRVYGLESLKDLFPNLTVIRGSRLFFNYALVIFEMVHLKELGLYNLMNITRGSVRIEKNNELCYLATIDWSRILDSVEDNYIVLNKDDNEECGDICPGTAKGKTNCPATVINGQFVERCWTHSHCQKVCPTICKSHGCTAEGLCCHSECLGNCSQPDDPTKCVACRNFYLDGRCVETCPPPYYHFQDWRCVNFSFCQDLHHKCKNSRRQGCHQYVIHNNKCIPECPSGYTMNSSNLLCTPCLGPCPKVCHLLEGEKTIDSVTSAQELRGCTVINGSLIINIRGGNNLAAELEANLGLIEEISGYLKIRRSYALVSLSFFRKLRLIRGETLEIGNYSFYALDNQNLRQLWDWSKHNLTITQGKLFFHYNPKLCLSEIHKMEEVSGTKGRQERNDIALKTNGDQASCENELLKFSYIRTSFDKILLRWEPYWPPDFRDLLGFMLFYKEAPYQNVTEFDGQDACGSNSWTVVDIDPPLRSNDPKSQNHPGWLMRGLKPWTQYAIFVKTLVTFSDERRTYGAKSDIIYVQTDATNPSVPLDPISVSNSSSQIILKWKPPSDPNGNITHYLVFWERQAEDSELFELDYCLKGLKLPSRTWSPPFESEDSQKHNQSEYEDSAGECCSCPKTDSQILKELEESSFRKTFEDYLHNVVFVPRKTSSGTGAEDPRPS
T1 sequence (P06213 763-1382 partner limits assumed): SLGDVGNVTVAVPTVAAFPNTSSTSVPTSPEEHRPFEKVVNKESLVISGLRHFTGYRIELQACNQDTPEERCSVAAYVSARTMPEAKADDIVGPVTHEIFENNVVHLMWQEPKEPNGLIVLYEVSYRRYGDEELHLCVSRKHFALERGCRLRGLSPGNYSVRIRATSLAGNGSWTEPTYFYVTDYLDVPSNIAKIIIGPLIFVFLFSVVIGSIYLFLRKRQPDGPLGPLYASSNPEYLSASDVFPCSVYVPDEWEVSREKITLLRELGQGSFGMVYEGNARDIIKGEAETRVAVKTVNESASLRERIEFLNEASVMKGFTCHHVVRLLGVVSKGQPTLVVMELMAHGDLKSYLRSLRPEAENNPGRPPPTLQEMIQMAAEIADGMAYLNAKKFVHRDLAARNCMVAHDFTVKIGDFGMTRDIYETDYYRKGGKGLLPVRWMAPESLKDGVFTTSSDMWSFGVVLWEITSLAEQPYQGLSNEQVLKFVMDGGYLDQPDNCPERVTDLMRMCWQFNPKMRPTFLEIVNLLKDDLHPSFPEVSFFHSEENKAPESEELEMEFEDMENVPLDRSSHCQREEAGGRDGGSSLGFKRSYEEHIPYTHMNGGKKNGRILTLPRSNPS

Molecule: C[C@@H](O)[C@H](NC(=O)CNC(=O)[C@H](CCCNC(=N)N)NC(=O)[C@H](CO)NC(=O)[C@H](Cc1c[nH]cn1)NC(=O)[C@H](Cc1ccccc1)N(C)C(=O)[C@H](N)CCCCN)C(=O)N[C@@H](Cc1ccccc1)C(N)=O [Compound 32]
- half-life at 1 mg/ml [1]: 57 h

Molecule: CC[C@H](C)[C@H](NC(=O)CN)C(=O)N[C@H](C(=O)N[C@@H](CC(=O)O)C(=O)N[C@@H](CCC(=O)O)C(=O)N[C@H]1CSSC[C@@H]2NC(=O)[C@H](CO)NC(=O)[C@H](CCCNC(=N)N)NC(=O)[C@H](Cc3ccccc3)NC(=O)[C@H](CSSC[C@H](NC(=O)[C@H](CC(C)C)NC(=O)[C@@H](NC(=O)[C@H](CCC(=O)O)NC(=O)[C@@H]3CCCN3C(=O)CN)[C@@H](C)O)C(=O)NCC(=O)N[C@@H](C)C(=O)N[C@@H](CC(=O)O)C(=O)N[C@@H](CC(C)C)C(=O)N[C@@H](C(C)C)C(=O)N[C@@H](CC(=O)O)C(=O)N[C@@H](C)C(=O)N[C@@H](CC(C)C)C(=O)N[C@@H](Cc3ccc(O)cc3)C(=O)N[C@@H](CC(C)C)C(=O)N[C@@H](C(C)C)C(=O)N[C@H](C(=O)NCC(=O)N[C@@H](CC(=O)O)C(=O)N[C@@H](CCCNC(=N)N)C(=O)NCC(=O)N[C@@H](Cc3ccccc3)C(=O)N[C@@H](Cc3ccc(O)cc3)C(N)=O)CSSC[C@@H](C(=O)N[C@@H](C)C(=O)O)NC(=O)[C@H](Cc3ccc(O)cc3)NC(=O)[C@H](CCSC)NC(=O)[C@H](CCC(=O)O)NC(=O)[C@H](CC(C)C)NC(=O)[C@H](CCCNC(=N)N)NC(=O)[C@H](CCCNC(=N)N)NC(=O)[C@H](CC(C)C)NC(=O)[C@H](CC(=O)O)NC2=O)NC1=O)C(C)C [IGF-1 A:B(D10Y16L17) DPI A-COOH]
- Selective Ratio (Insulin Receptor [2]): 9.75

Molecule: CC[C@H](C)[C@H](NC(=O)CN)C(=O)N[C@H](C(=O)N[C@@H](CC(=O)O)C(=O)N[C@@H](CCC(=O)O)C(=O)N[C@H]1CSSC[C@@H]2NC(=O)[C@H](CO)NC(=O)[C@H](C)NC(=O)[C@H](Cc3c[nH]cn3)NC(=O)[C@H](CSSC[C@H](NC(=O)[C@H](CC(C)C)NC(=O)[C@H](Cc3c[nH]cn3)NC(=O)[C@H](CCC(=O)O)NC(=O)[C@@H]3CCCN3C(=O)CN)C(=O)NCC(=O)N[C@@H](C)C(=O)N[C@@H](CC(=O)O)C(=O)N[C@@H](CC(C)C)C(=O)N[C@@H](C(C)C)C(=O)N[C@@H](CC(=O)O)C(=O)N[C@@H](C)C(=O)N[C@@H](CC(C)C)C(=O)N[C@@H](Cc3ccc(O)cc3)C(=O)N[C@@H](CC(C)C)C(=O)N[C@@H](C(C)C)C(=O)N[C@H](C(=O)NCC(=O)N[C@@H](CC(=O)O)C(=O)N[C@@H](CCCNC(=N)N)C(=O)NCC(=O)N[C@@H](Cc3ccccc3)C(=O)N[C@@H](Cc3ccc(O)cc3)C(N)=O)CSSC[C@@H](C(=O)N[C@@H](CC(N)=O)C(=O)O)NC(=O)[C@H](Cc3ccc(O)cc3)NC(=O)[C@H](CCSC)NC(=O)[C@H](CCC(=O)O)NC(=O)[C@H](CC(C)C)NC(=O)[C@H](CCCNC(=N)N)NC(=O)[C@H](CCCNC(=N)N)NC(=O)[C@H](CC(C)C)NC(=O)[C@H](CC(=O)O)NC2=O)NC1=O)C(C)C
- Selective Ratio (Insulin Receptor [2]): 2.81

Molecule: CC[C@H](C)[C@H](NC(=O)CNC(=O)[C@@H]1CCCN1C(=O)[C@H](C)N)C(=O)N[C@H](C(=O)N[C@@H](CC(=O)O)C(=O)N[C@@H](CCC(=O)O)C(=O)N[C@H]1CSSC[C@@H]2NC(=O)[C@H](CO)NC(=O)[C@H](CCCNC(=N)N)NC(=O)[C@H](Cc3ccccc3)NC(=O)[C@H](CSSC[C@H](NC(=O)[C@H](CC(C)C)NC(=O)[C@@H](NC(=O)[C@H](CCC(=O)O)NC(=O)[C@@H]3CCCN3C(=O)CN)[C@@H](C)O)C(=O)NCC(=O)N[C@@H](C)C(=O)N[C@@H](CCC(=O)O)C(=O)N[C@@H](CC(C)C)C(=O)N[C@@H](C(C)C)C(=O)N[C@@H](CC(=O)O)C(=O)N[C@@H](C)C(=O)N[C@@H](CC(C)C)C(=O)N[C@@H](Cc3ccc(O)cc3)C(=O)N[C@@H](CC(C)C)C(=O)N[C@@H](C(C)C)C(=O)N[C@H](C(=O)NCC(=O)N[C@@H](CC(=O)O)C(=O)N[C@@H](CCCNC(=N)N)C(=O)NCC(=O)N[C@@H](Cc3ccccc3)C(=O)N[C@@H](Cc3ccc(O)cc3)C(=O)N[C@@H](Cc3ccccc3)C(=O)N[C@@H](CC(N)=O)C(=O)N[C@@H](CCCCN)C(=O)N3CCC[C@H]3C(=O)N[C@H](C(N)=O)[C@@H](C)O)CSSC[C@@H](C(=O)N[C@@H](C)C(N)=O)NC(=O)[C@H](Cc3ccc(O)cc3)NC(=O)[C@H](CCSC)NC(=O)[C@H](CCC(=O)O)NC(=O)[C@H](CC(C)C)NC(=O)[C@H](CCCNC(=N)N)NC(=O)[C@H](CCCNC(=N)N)NC(=O)[C@H](CC(C)C)NC(=O)[C@H](CC(=O)O)NC2=O)NC1=O)C(C)C [IGF1(Y^B16L^B17)(AlaPro)^A-1,0]
- insulin receptor binding, in words (Insulin Receptor [3]; compared with native insulin): substantially reduced affinity for the insulin receptor

Molecule: CC[C@H](C)[C@H](NC(=O)CN)C(=O)N[C@H](C(=O)N[C@@H](CC(=O)O)C(=O)N[C@@H](CCC(=O)O)C(=O)N[C@H]1CSSC[C@@H]2NC(=O)[C@H](CO)NC(=O)[C@H](C)NC(=O)[C@H](Cc3c[nH]cn3)NC(=O)[C@H](CSSC[C@H](NC(=O)[C@H](CC(C)C)NC(=O)[C@H](Cc3c[nH]cn3)NC(=O)[C@H](CCC(=O)O)NC(=O)[C@@H]3CCCN3C(=O)CN)C(=O)NCC(=O)N[C@@H](C)C(=O)N[C@@H](CC(=O)O)C(=O)N[C@@H](CC(C)C)C(=O)N[C@@H](C(C)C)C(=O)N[C@@H](CC(=O)O)C(=O)N[C@@H](C)C(=O)N[C@@H](CC(C)C)C(=O)N[C@@H](Cc3ccc(O)cc3)C(=O)N[C@@H](CC(C)C)C(=O)N[C@@H](C(C)C)C(=O)N[C@H](C(=O)NCC(=O)N[C@@H](CC(=O)O)C(=O)N[C@@H](C)C(=O)NCC(=O)N[C@@H](Cc3ccccc3)C(=O)N[C@@H](Cc3ccc(O)cc3)C(N)=O)CSSC[C@@H](C(=O)N[C@@H](CC(N)=O)C(=O)O)NC(=O)[C@H](Cc3ccc(O)cc3)NC(=O)[C@H](CCSC)NC(=O)[C@H](CCC(=O)O)NC(=O)[C@H](CC(C)C)NC(=O)[C@H](CCCNC(=N)N)NC(=O)[C@H](CCCNC(=N)N)NC(=O)[C@H](CC(C)C)NC(=O)[C@H](CC(=O)O)NC2=O)NC1=O)C(C)C
- Selective Ratio (Insulin Receptor [2]): 32.54

Molecule: CC[C@H](C)[C@H](NC(=O)CN)C(=O)N[C@H](C(=O)N[C@@H](CC(=O)O)C(=O)N[C@@H](CCC(=O)O)C(=O)N[C@@H](C)C(=O)N[C@@H](C)C(=O)N[C@@H](Cc1ccccc1)C(=O)N[C@@H](CCCNC(=N)N)C(=O)N[C@@H](CO)C(=O)N[C@@H](C)C(=O)N[C@@H](CC(=O)O)C(=O)N[C@@H](CC(C)C)C(=O)N[C@@H](CCCNC(=N)N)C(=O)N[C@@H](CCCNC(=N)N)C(=O)N[C@@H](CC(C)C)C(=O)N[C@@H](CCC(=O)O)C(=O)N[C@@H](CCSC)C(=O)N[C@@H](Cc1ccc(NC(=O)CN(CC(C)C)C(=O)[C@H](N)CCCCN)cc1)C(=O)N[C@@H](C)C(=O)N[C@@H](C)C(N)=O)C(C)C [dK N-isobutyl Gly] (H-GIVDEAAFRSADLRRLEM[Phe(4-NH2)]([Nleu-dK])AA-NH2)
- half-life [4]: 4.4 h
- half-life (in vitro): 4.1 h

Molecule: C[C@@H](O)[C@H](NC(=O)CNC(=O)[C@H](CCCNC(=N)N)NC(=O)[C@H](CO)NC(=O)[C@H](Cc1c[nH]cn1)NC(=O)[C@@H]1CCN1C(=O)C(C)(C)N)C(=O)N[C@@H](Cc1ccccc1)C(N)=O [Compound 26] (H-[Aib][Aze]HSRGTF-NH2)
- half-life at 1 mg/ml (physchem): > 500 h

Molecule: C[C@@H](O)[C@H](NC(=O)CNC(=O)[C@H](CCCNC(=N)N)NC(=O)[C@H](CO)NC(=O)[C@H](Cc1c[nH]cn1)NC(=O)[C@H](C)N(C)C(=O)[C@H](N)CCCCN)C(=O)N[C@@H](Cc1ccccc1)C(N)=O [Compound 31]
- half-life at 1 mg/ml [1]: 14 h

Molecule: CC[C@H](C)[C@H](NC(=O)CN)C(=O)N[C@H](C(=O)N[C@@H](CC(=O)O)C(=O)N[C@@H](CCC(=O)O)C(=O)N[C@H]1CSSC[C@@H]2NC(=O)[C@H](CO)NC(=O)[C@H](CCCNC(=N)N)NC(=O)[C@H](Cc3ccccc3)NC(=O)[C@H](CSSC[C@H](NC(=O)[C@H](CC(C)C)NC(=O)[C@@H](NC(=O)[C@H](CCC(=O)O)NC(=O)[C@@H]3CCCN3C(=O)CN)[C@@H](C)O)C(=O)NCC(=O)N[C@@H](C)C(=O)N[C@@H](CCC(=O)O)C(=O)N[C@@H](CC(C)C)C(=O)N[C@@H](C(C)C)C(=O)N[C@@H](CC(=O)O)C(=O)N[C@@H](C)C(=O)N[C@@H](CC(C)C)C(=O)N[C@@H](Cc3ccc(O)cc3)C(=O)N[C@@H](CC(C)C)C(=O)N[C@@H](C(C)C)C(=O)N[C@H](C(=O)NCC(=O)N[C@@H](CC(=O)O)C(=O)N[C@@H](CCCNC(=N)N)C(=O)NCC(=O)N[C@@H](Cc3ccccc3)C(=O)N[C@@H](Cc3ccc(O)cc3)C(N)=O)CSSC[C@@H](C(=O)N[C@@H](C)C(N)=O)NC(=O)[C@H](Cc3ccc(O)cc3)NC(=O)[C@H](CCSC)NC(=O)[C@H](CCC(=O)O)NC(=O)[C@H](CC(C)C)NC(=O)[C@H](CCCNC(=N)N)NC(=O)[C@H](CCCNC(=N)N)NC(=O)[C@H](CC(C)C)NC(=O)[C@H](CC(=O)O)NC2=O)NC1=O)C(C)C [IGF-1 A:B (E10Y16L17) DPI]
- Ratio (Insulin Receptor [3]; Table 9, IGF-1 receptor IC50 versus insulin receptor IC50): 60.2

B1: IGF-1 A (H8 A9 N21):B(H5D10Y16L17 A22) DPI A-COOH (ligand)
chain 1: GIVDECCHASCDLRRLEMYCN-OH
chain 2: GPEHLCGADLVDALYLVCGDAGFY
modifications: not fully specified (bridges); cysteine pairing not given here
- % IGF (human IGF-1 receptor): 7.7%
